Data: ChEMBL document CHEMBL5614445, “Asymmetric Dirhodium-Catalyzed Modification of Immunomodulatory Imide Drugs and Their Biological Assessment” (ACS Med Chem Lett, 2024)

Assays:
Assay type in all cases: cell-based
[1] = biological target: Casein kinase I isoform alpha (Homo sapiens) (UniProt P48729); experiment: Induction of ePL tagged CK1alpha degradation in human MDS-L cells assessed as remaining protein level incubated for 60 mins by luminescence reader assay relative to control
[2] = biological target: Zinc finger protein Aiolos (Homo sapiens) (UniProt Q9UKT9); experiment: Induction of N-terminal HiBiT tag knocked in IKZF3 degradation in human DF15 cells assessed as remaining protein level incubated for 60 mins by Nano-Glo HiBiT lytic reagent based assay relative to control
Chain of Zinc finger protein Aiolos (Homo sapiens) (Q9UKT9 whole entry): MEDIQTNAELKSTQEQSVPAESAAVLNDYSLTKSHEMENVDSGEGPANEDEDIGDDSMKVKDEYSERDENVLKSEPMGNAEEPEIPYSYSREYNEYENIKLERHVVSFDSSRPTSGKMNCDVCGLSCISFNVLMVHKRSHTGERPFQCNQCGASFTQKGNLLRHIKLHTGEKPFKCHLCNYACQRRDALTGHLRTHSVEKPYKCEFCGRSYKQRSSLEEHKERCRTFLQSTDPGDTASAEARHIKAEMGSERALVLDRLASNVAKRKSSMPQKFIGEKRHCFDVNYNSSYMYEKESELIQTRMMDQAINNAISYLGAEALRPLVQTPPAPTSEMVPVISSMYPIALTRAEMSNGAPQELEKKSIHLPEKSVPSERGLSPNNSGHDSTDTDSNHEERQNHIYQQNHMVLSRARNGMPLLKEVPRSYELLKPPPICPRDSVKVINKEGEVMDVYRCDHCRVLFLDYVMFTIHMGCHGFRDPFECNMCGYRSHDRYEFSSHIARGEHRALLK

[3] = biological target: T1, Eukaryotic peptide chain release factor GTP-binding subunit ERF3A (Homo sapiens, UniProt P15170); experiment: Induction of ePL tagged GSPT1 degradation in human DF15 cells assessed as remaining protein level incubated for 60 mins by luminescence reader assay relative to control
T1 sequence (P15170 whole entry): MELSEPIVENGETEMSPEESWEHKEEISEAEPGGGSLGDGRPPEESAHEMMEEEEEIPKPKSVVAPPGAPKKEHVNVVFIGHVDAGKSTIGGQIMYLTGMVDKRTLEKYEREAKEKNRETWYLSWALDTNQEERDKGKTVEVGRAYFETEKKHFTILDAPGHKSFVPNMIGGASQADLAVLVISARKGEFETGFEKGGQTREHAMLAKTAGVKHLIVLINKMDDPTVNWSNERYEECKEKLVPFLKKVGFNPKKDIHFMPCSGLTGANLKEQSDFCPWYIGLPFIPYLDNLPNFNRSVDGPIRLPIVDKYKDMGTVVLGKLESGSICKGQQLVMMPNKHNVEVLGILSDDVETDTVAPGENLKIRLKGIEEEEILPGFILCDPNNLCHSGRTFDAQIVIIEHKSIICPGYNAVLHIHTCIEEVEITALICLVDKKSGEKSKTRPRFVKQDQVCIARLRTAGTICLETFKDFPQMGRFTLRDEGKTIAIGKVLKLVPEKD

[4] = biological target: T1, Eukaryotic peptide chain release factor GTP-binding subunit ERF3A; experiment: Induction of ePL tagged GSPT1 degradation in human DF15 cells incubated for 60 mins by luminescence reader assay; conditions: read-out: EC50 (the source's name)

Chain of Casein kinase I isoform alpha (Homo sapiens) (P48729 2-337 limits assumed): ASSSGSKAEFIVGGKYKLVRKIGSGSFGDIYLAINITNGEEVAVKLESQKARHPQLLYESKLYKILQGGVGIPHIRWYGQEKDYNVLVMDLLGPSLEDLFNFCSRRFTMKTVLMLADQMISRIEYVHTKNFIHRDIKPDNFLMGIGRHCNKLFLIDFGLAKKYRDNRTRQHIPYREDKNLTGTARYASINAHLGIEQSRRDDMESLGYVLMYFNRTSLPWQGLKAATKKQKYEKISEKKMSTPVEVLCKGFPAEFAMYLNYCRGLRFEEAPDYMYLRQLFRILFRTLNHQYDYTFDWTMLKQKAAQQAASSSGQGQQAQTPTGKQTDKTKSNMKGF

An Activity [1] of 92% was found for `O=C1CCC(N2Cc3cc([C@@H]4C[C@]4(C(=O)OCC(Cl)(Cl)Cl)c4ccc(Br)cc4)ccc3C2=O)C(=O)N1` (some centres undefined) in this work.
An Activity [2] of 99% was found for `O=C1CCC(N2C(=O)c3cccc([C@H]4C[C@@]4(C(=O)OCC(Cl)(Cl)Cl)c4ccc(Br)cc4)c3C2=O)C(=O)N1` (some centres undefined) in this work.
An Activity [3] of 2.3% was found for `O=C1CCC(N2C(=O)c3ccc(C4=C[C@]4(C(=O)OCC(Cl)(Cl)Cl)c4ccc(Br)cc4)cc3C2=O)C(=O)N1` (some centres undefined) in this work.
An Activity [1] of 44% was found for `O=C1CCC(N2Cc3cc([C@H]4C[C@@]4(C(=O)OCC(Cl)(Cl)Cl)c4ccc(Br)cc4)ccc3C2=O)C(=O)N1` (some centres undefined) in this work.
An Activity [2] of 79% was found for `O=C1CCC(N2Cc3c(cccc3[C@@H]3C[C@]3(C(=O)OCC(Cl)(Cl)Cl)c3ccc(Br)cc3)C2=O)C(=O)N1` (some centres undefined) in this work.
An Activity [3] of 100% was found for `O=C1CCC(N2C(=O)c3ccc([C@@H]4C[C@]4(C(=O)OCC(Cl)(Cl)Cl)c4ccc(Br)cc4)cc3C2=O)C(=O)N1` (some centres undefined) in this work.
An Activity [3] of 1.4% and a DC50 [4] of 1400 nM were found for `O=C1CCC(N2C(=O)c3ccc(C4=C[C@@]4(C(=O)OCC(Cl)(Cl)Cl)c4ccc(Br)cc4)cc3C2=O)C(=O)N1` (some centres undefined) in this work.
An Activity [2] of 9.2% was found for `O=C1CCC(N2Cc3c(cccc3C3=C[C@]3(C(=O)OCC(Cl)(Cl)Cl)c3ccc(Br)cc3)C2=O)C(=O)N1` (some centres undefined) in this work.
